Legend:
[1] = cited from earlier work
[2] = test system: synaptophysin; assay: Synaptophysin ELISA of rat brain homogenates after carboplatin infusion; assay type: in vivo; details: 72 hours after infusion
Experimental: Brain tissue homogenates were prepared from dissected samples of unfixed frozen hemispheres from rats at 72 hours after infusion of either artificial CSF (control) or carboplatin at concentrations of 0.36 and 0.72 mg/ml. Tissue samples incorporating the overlying cerebral cortex (approximately 200 mg) were dissected and homogenised for 75 s using a Precellys 24 automated tissue homogeniser (Stretton Scientific) with 2.3 mm silica beads (Biospec) in 1% SDS, 10 mM tris base (pH 6.0), 0.1 mM sodium chloride, and the protease inhibitors aprotinin (1 μg/ml; Sigma) and PMSF (10 μM; Sigma). The resultant crude tissue homogenates were centrifuged at 13,000 rpm for 15 min at 4° C., and the supernatants aliquoted and stored at −80° C.
Ninety-six-well plates (Nunc Maxisorp) were coated with primary rabbit anti-synaptophysin polyclonal antibody (Abeam) at a concentration of 1 μg/ml, and incubated overnight at 4° C. After 5 washes with wash buffer, non-specific binding was blocked with the addition of 1% BSA/PBS for 2 hours. After 5 washes with wash buffer, serial dilutions of recombinant synaptophysin or the supernatant of crude homogenates were added to wells in triplicate, and incubated at room temperature for 2 hours. […] Plates were read in a microplate reader at 405 nm (BMG Labtech).

[3] = Tissue distribution and half-life of carboplatin after CED into rat brain (LA-ICP-MS); assay type: in vivo
Experimental: Male Wistar rats (Charles River, UK) were group-housed and allowed to acclimatise prior to experimental procedures. Rats weighing 225 to 275 g were anaesthetised with an intraperitoneal dose of medetomidine (Dormitor; 0.4 mg/kg; Pfizer Animal Health, Kent, UK) and ketamine (Ketaset; 100 mg/kg; Pfizer, UK) and placed in a stereotactic frame (Stoelting Co, Wood Dale, Ill. USA). A linear incision was made between the glabella and the occiput and the skull exposed. Burr holes with a diameter of approximately 2 mm were drilled 1.0 mm anterior and 2.5 mm lateral to the bregma and cannulae were inserted to a depth of 2.5 mm below the dura. All cannulae were pre-primed with either saline or carboplatin and the desired dose prior to insertion into the brain. Every attempt was made to ensure that no air bubbles were present in the infusion cannula. Infusions of 2.5 μl of carboplatin at specific concentrations (outlined in Table 1) were conducted at a rate of 5 μl/min. Following infusion completion, the cannula was left in-situ for 10 min before being withdrawn at a rate of 1 mm/min. The wound was then closed with 5.0 Vicryl (Ethicon, Gargrave, UK) a dose of intramuscular buprenorphine was administered (Vetergesic; 0.03 mg/kg; Alstoe Animal Health, York, UK) and the anaesthetic was reversed with an intraperitoneal dose of atipamezole hydrochloride (Antisedan; 5 mg/kg; Pfizer, UK). […]
Resultant data (.csv files) was in the form of signal response for each monitored isotope (separate columns) against time; as such, ion-responses could be co-ordinated to form 2D elemental distribution maps, using the Graphis software package (Kylebank Software Ltd, Ayr, UK).
The laser ablation (LA) system was configured to perform multiple, parallel line-rastering of sections. […] Isotopes (^13C, ^57Fe, ^66Zn, ^157Gd and ^195Pt) were monitored in a time-resolved mode and selected on the basis of high-percentage abundance and minimal isobaric and polyatomic interferences. […]

[4] = Prolonged intracranial (brainstem) carboplatin infusions in primates (Strege et al.); assay type: in vivo
[5] = high-dose intravenous delivery; cited from earlier work
[6] = Glioma tissue concentration after high-dose intravenous delivery (Whittle et al.); assay type: in vivo
[7] = single brainstem infusions, concentrations as high as 1 mg/ml; cited from earlier work

Question: For `N.N.O=C([O-])C1(C(=O)[O-])CCC1.[Pt+2]` [carboplatin], which serum concentration ([1]; intracranial infusions of 0.25 mg/kg in primates) is on record?
Answer: Its serum concentration is 6 ng/mL.

Question: And the clinical toxicity ([1]; one-month long brainstem infusions, 0.075 mg/kg)?
Answer: The clinical toxicity was “minimal clinical evidence of toxicity”.

Question: And the “reduction in synaptophysin (indicative of toxicity)” value ([2]; 0.36 mg/ml)?
Answer: Its value is “not at 0.36 mg/ml”.

Question: And the “reduction in synaptophysin (indicative of toxicity)” value ([2]; 0.72 mg/ml)?
Answer: Its value is “observed at 0.72 mg/ml”.

Question: What about the “distribution in rat brain at 0 hours post-infusion” value ([3]; 0.03 mg/ml by CED into corpus callosum) of the same compound?
Answer: Its value is “widespread distribution”.

Question: What about the “time platinum detectable by LA-ICP-MS” value ([3]; 0.03 mg/ml by CED into rat corpus callosum) of the same compound?
Answer: Its value is “up to 24 hours”.

Question: And the “time carboplatin remains in the brain” value ([3]; rat, CED)?
Answer: Its value is “at least 24 hours”.

Question: And the “lowest concentration likely to lead to significant toxicity” value ([4]; extrapolated from Strege et al, assuming patient weight of 70 kg)?
Answer: Its value is 0.22 mg/mL.

Question: What about the “ratio of serum concentration, intravenous in humans vs intracranial in primates” value ([4]; in vivo, iv) of the same compound?
Answer: The value was “more than 5 thousand”.

Question: And the “peak glioma tissue concentration” value [5]?
Answer: The value was 0.013 mg/mL.

Question: And the “peak glioma tissue concentration as share of IC50 (meta-analysis of chemosensitivity assays)” value [6]?
Answer: The value was 40%.

Question: What about the histological tissue damage [7] of the same compound?
Answer: Its histological tissue damage is “without histological evidence of tissue damage”.

From US20160136284A1, “GLIOMA TREATMENT” (priority 2012, published 2016)
